Experimental data as given in publication PMC4326127, “Collagen Inhibitory Peptide R1R2 Mediates Vascular Remodeling by Decreasing Inflammation and Smooth Muscle Cell Activation” (PLoS ONE, 2015).

Columns and labels:
U937 cells / HUVECs [1] = assay: Monocyte U937 transendothelial migration assay; type: cell-based, human; conditions: HUVECs on 5um transwells, 10 ng/ml TNF-α; U937 1.5x10^5 cells/transwell, 1.5 hours at 37°C; fluorescence 485/535; mean ± SD
Description: (§1) For in vivo experiments, the data are shown as the mean ± SEM. For in vitro experiments, the data shown are the means ± SD of a representative experiment, at least 3 independent experiments were performed. One-way ANOVA with post-hoc testing were used for data analysis with GraphPad Prism software (GraphPad, San Diego, CA). If normality test failed, nonparametric Kruskal-Wallis test followed by Dunn's post-hoc test were used. P > 0.05 was not considered significant.

collagen type I = assay: IHC for collagen type I in ligated carotid artery; type: in vivo, FVB/NJ (FVB) mice; conditions: 7 days after surgery; 20 μM peptide in pluronic gel; mean ± SEM; R1R2 n = 6, scrambled n = 6
Description: (§2) Animals were anesthetized with isoflurane inhalation. The left common carotid artery was exposed, dissected free from the surrounding connective tissue and completely ligated with 6-0 silk suture just proximal to the carotid bifurcation. […] 4–10 mice were included in each experimental group.
(§3) Paraffin sections selected from the first mm of the carotid artery in each group were used for immunohistochemistry (IHC). […] Sections were then incubated with appropriate biotinylated secondary antibodies followed by avidin-biotin immunoperoxidase system (Vector Laboratories, Burlingame, CA). Liquid DAB Substrate Chromogen system (Dako, Carpinteria, CA) was used for detection.
(§4) Quantitative IHC analysis was performed on digital images captured with a 20x objective by using Image-Pro Plus software. Data from 3–6 mice for each group were averaged, and the average values ± SEM were shown. For FN, collagen type I, SM-MHC and SM α-actin, color digital images were transformed into gray scale, and the sum of the optical densities from the intima+media area in each section was determined. […] The percent of positive cells is reported as the proliferation index. […] The intima+media region was traced manually. The percent of positively stained area in intima+media to the total traced area was assessed.
(§5) For in vivo experiments, the data are shown as the mean ± SEM. […]

A7r5 SMCs [2] = assay: SMC migration, scrape wound assay; type: cell-based; conditions: A7r5 SMCs, 36 hours peptide pretreatment, 10 ng/ml PDGF-BB, 30 hours; mean ± SD, n = 3
Description: (§6) Human umbilical vein endothelial cells (HUVECs) and A7r5 SMCs were provided by Resource Center (SB3, NSC 100-2325-B-080-001), National Research Program for Biopharmaceuticals (Hsinchu, Taiwan). HUVECs were maintained in M199 (Life Technologies, Carlsbad, CA) with 25U/ml heparin (Sigma-Aldrich, St. Louis, MO), 10% fetal bovine serum (FBS) and endothelial cell growth supplement (ECGS; Millipore, Billerica, MA). A7r5 SMCs were grown in Dulbecco’s Modified Eagle’s Medium (DMEM) containing high glucose, supplemented with 10% fetal bovine serum. Human U937 cells were grown in RPMI1640 with 10% FBS.
A scrape wound assay was used to assess the effect of R1R2 and scrambled peptides on SMC migration as described. Briefly, A7r5 SMCs were grown until 90% confluent, followed by serum starvation and treatment with R1R2 and scrambled peptides for 36 hours. Several scrape wounds were then performed across the dish with a sterile yellow pipet tip. We initiated the experiment with treatment of cells with 10 ng/ml PDGF-BB. Photographs of the wound area were taken immediately after PDGF-BB addition (0 hour) and 30 hours postwounding with an Olympus CKX-41 microscope connected to a camera. At least three photographs were taken per group at each time point. Wound areas were determined using Image-Pro Software (Media Cybernetics, MD). Measurement of migration was determined by subtracting the cell-free area 30 hours after PDGF-BB addition from the cell-free area in the beginning of scrape wounds.
For in vivo experiments, the data are shown as the mean ± SEM. For in vitro experiments, the data shown are the means ± SD of a representative experiment, at least 3 independent experiments were performed. […]
Fig 6 R1R2 reduces SMC proliferation and migration. […] Cells were counted at the indicated time in the figure (n = 5). […] (C) Quantitation of SMC migration in the scratch wound healing assay was performed by subtracting the cell-free area 30 hours after PDGF-BB stimulation from the cell-free area in the beginning (n = 5). * indicates p<0.05 and ** p< 0.01.

FN = assay: IHC for FN in ligated carotid artery; type: in vivo, FVB/NJ (FVB) mice; conditions: mean ± SEM
Description: as §2, §3, §4, §1

collagen = assay: Hydroxyproline assay of carotid collagen content; type: in vivo, FVB/NJ (FVB) mice; conditions: 14 days post-ligation; three carotid arteries pooled per group; colorimetric chloramine T; mean ± SEM, n = 3
Description: as §2
After reconstituting with water, samples were measured using a colorimetric chloramine T assay. Three independent experiments were performed for statistical analysis.
as §1

CD45 (+) leukocytes = assay: CD45 IHC, leukocyte infiltration in carotid intima-media; type: in vivo, FVB/NJ (FVB) mice; conditions: 7 days after ligation; percent of positively stained area; mean ± SEM; R1R2 n = 5, scrambled n = 6
Description: as §2, §3, §4, §1

A7r5 SMCs [3] = assay: A7r5 SMC growth study; type: cell-based; conditions: 48hr; 10% FBS after serum starvation and 36 hours peptide treatment; hemocytometer, trypan blue; mean ± SD, n = 5
Description: as §6
A7r5 cells and HUVECs were growth-arrested and then stimulated with 10% FBS or 10 ng/ml TNF-αovernight after serum starvation as indicated in the figure legend. Briefly, trypan blue-excluding cells were counted with a hemocytometer, and data were analyzed using GraphPad Prism Software (San Diego, CA) as in previous studies. A second observer performed a similar analysis to verify the initial findings.
as §1
Fig 6 R1R2 reduces SMC proliferation and migration. (A) A7r5 SMC growth study over 96 hours. After serum starvation and treatment with R1R2 or scrambled peptides for 36 hours, cells were stimulated with 10% FBS over 96 hours. Cells were counted at the indicated time in the figure (n = 5). (B) A7r5 SMCs were pretreated with R1R2 or scramble peptide for 36 hours. […] (C) Quantitation of SMC migration in the scratch wound healing assay was performed by subtracting the cell-free area 30 hours after PDGF-BB stimulation from the cell-free area in the beginning (n = 5). * indicates p<0.05 and ** p< 0.01.

[4] = test system: left common carotid artery (flow-induced vascular remodeling); assay: Morphometric analysis of carotid artery after complete common carotid ligation; type: in vivo, FVB/NJ (FVB) mice; conditions: periadventitial
Text: as §2
5 groups of animals were processed for morphometric analysis. Mice were fixed with 10% formalin 7 or 14 days after the surgery. The common carotid arteries were harvested and embedded in paraffin.
as §1

ICAM-1 = ICAM-1 IHC in ligated carotid artery; type: in vivo, FVB/NJ (FVB) mice; conditions: 7 days after ligation; percent of positively stained area; mean ± SEM; R1R2 n = 7, control peptide n = 8
Description: as §2, §3, §4, §5

VCAM-1 = VCAM-1 IHC in ligated carotid artery; type: in vivo, FVB/NJ (FVB) mice; conditions: 7 days after ligation; percent of positively stained area; mean ± SEM; R1R2 n = 7, control peptide n = 9
Description: as §2, §3, §4, §5

[5] = test system: binding of FN to collagen type I; assay: Solid-phase binding assay (competitive ELISA) of FN to collagen; design: species or system human FN; rat collagen type I; conditions: 4 nM FN incubated with peptide at 4°C overnight, then on wells coated with 10 μg/ml collagen I overnight at 37°C; anti-FN/HRP, ABTS, A405
Description: Human FN and rat collagen type I for competitive ELISA were purchased from Sigma-Aldrich (St. Louis, MO).
The FN-peptide solutions were added to collagen or BSA-coated wells, and the plates were incubated overnight at 37°C. The wells were washed and a rabbit anti-FN antibody was added for 90 minutes at room temperature. Wells were washed and then incubated with a horseradish peroxidase-conjugated secondary antibody. After washing was completed, peroxidase activity was quantified using 2,2'-azino-bis-(3-ethylbenthiazoline-6-sulfonic acid). Measurements were done at 405 nm (A405) using a SpectraMax M5 microplate reader (Molecular Device, Sunnyvale, CA).
Bound FN was detected with an anti-FN antibody followed by HRP-conjugated secondary antibody, and ABTS as described in Methods. The absorbance at 405nm was quantitated.

[6] = test system: smooth muscle α-actin (SMAA); assay: IHC for smooth muscle α-actin in ligated carotid artery; type: in vivo, FVB/NJ (FVB) mice; conditions: 7 days post-ligation; mean ± SEM; scrambled n = 6, R1R2 n = 5 (sham 0.232 ± 0.011, n = 5)
Description: as §2, §3, §4, §5

U937 cells / HUVECs [7] = assay: Monocyte U937 adhesion to HUVECs; type: cell-based, human; conditions: HUVECs treated with 10 ng/ml TNF-α; calcein-AM U937 5x10^5 cells/well, 30 minutes at 37°C; fluorescence 485/535; mean ± SD
Description: as §1

[8] = 7 day after ligation, 20 μM peptide in 50 μl F-127 pluronic gel, mean ± SEM, scrambled n = 4, R1R2 n = 10
[9] = 14 day after ligation, 20 μM peptide in 50 μl F-127 pluronic gel, mean ± SEM, scrambled n = 4, R1R2 n = 9

PGPGAEQPEQSKERNSQERGNGLALPGEELEGQEGGNKPSGENNGPPQGNLRGPLEG [scrambled peptide, reference compound]
U937 transendothelial migration (U937 cells / HUVECs [1]): 110055 ± 42517 cells per well | collagen type I IHC intensity in intima-media area (collagen type I): 0.198 ± 0.007 | SMC migration (cell-free area at 0 h minus cell-free area at 30 hours) (A7r5 SMCs [2]): 313537 ± 66925 | FN IHC intensity in intima-media area (FN; 7 days after ligation, R1R2 n = 6, scrambled n = 6): 0.144 ± 0.005 | FN IHC intensity in intima-media area (FN; 14 days after ligation, R1R2 n = 7, scrambled n = 7): 0.338 ± 0.016 | collagen content, hydroxyproline assay (collagen): 2.133 ± 0.284 | CD45 (+) area in intima-media (CD45 (+) leukocytes): 0.441 ± 0.049% | A7r5 SMC growth, cell number (A7r5 SMCs [3]): 2.740 ± 0.688 x 10^5 | effect on neointimal formation ([4]; 7 and 14 days post-ligation, 20 μM peptide in pluronic gel, in words): have no effect on neointimal formation | EEL Area [4, 8]: 91403 ± 3805 (n = 4) μm^2 | Lumen [4, 8]: 44901 ± 4552 (n = 4) μm^2 | EEL Area [4, 9]: 92240 ± 13572 (n = 4) μm^2 | Intima+Media [4, 9]: 65441 ± 11973 (n = 4) μm^2 | Lumen [4, 9]: 37551 ± 11976 (n = 4) μm^2 | ICAM-1 (+) area in intima-media (ICAM-1): 30.39 ± 3.016% | VCAM-1 (+) area in intima-media (VCAM-1): 25.72 ± 1.966% | effect on FN-collagen type I binding [5]: had no effect on FN-collagen binding | SMAA IHC staining in intima-media area [6]: 0.176 ± 0.004 | U937 adhesion to HUVECs (U937 cells / HUVECs [7]): 259093 ± 14720 cells per cm^2
